Results from US8829029B2, “Dual modulators of 5HT2A and D3 receptors” (Hoffmann-La Roche Inc., priority 2008, dated 2014).

Columns and labels:
[1] = target: human D3 dopamine receptor (Homo sapiens (Human), UniProt P35462); test: Radioligand binding ([3H]-spiperone) to cloned human D3 receptor expressed in HEK-293 EBNA cells; conditions: membranes of transfected HEK-293 EBNA cells, 0.5 nM [3H]-spiperone, 1 h at RT
Summary of the method: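 Membranes from HEK-293 EBNA cells transiently transfected with human D3 receptor, incubated 1 h at RT with ~0.5 nM [3H]-spiperone and ten compound concentrations (10 μM-0.1 nM); nonspecific binding with 10 μM spiperone. Filtered, scintillation counted; IC50 from four-parameter fit, Ki via Cheng-Prusoff using saturation Kd.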

[2] = target: human 5-HT2A serotonin receptor (Homo sapiens (Human), UniProt P28223); test: Radioligand binding ([3H]-ketanserin) to cloned human 5-HT2A receptor expressed in HEK-293 EBNA cells; conditions: membranes of transfected HEK-293 EBNA cells, 1.1 nM [3H]-ketanserin, 1 h at RT
Summary of the method: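 Membranes from transiently transfected HEK-293 EBNA cells incubated 1 h at RT with 1.1 nM [3H]-ketanserin (5-HT2A, 15 μg protein/well, Tris/MgCl2/EGTA pH 7.4) or 0.5 nM [3H]-spiperone (D3, 7.5 μg/well, Tris/NaCl/MgCl2/KCl/CaCl2 pH 7.4) plus test compound at 10 μM-0.1 nM. Nonspecific binding with 10 μM spiperone; filtration, Ki via Cheng-Prusoff.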

Chain of human D3 dopamine receptor (P35462 whole entry): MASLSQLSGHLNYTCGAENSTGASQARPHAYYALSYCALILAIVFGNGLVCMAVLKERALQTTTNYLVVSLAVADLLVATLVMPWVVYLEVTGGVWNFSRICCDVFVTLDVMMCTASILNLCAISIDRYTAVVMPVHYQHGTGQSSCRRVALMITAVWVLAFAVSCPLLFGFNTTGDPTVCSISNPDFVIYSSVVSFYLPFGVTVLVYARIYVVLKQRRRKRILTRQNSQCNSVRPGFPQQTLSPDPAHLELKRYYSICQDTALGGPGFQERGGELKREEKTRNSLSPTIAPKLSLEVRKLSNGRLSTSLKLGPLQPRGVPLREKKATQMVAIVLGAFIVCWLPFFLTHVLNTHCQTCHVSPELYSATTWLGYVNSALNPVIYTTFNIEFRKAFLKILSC

Molecule | Ki [1] [nM] | Ki [2] [nM]
O=C(CCO)N[C@H]1CC[C@H](CCN2CCC(c3noc4cc(F)c(F)cc34)CC2)CC1 [Example 68, N-trans-(4-{2-[4-(5,6-Difluoro-benzo[d]isoxazol-3-yl)-piperidin-1-yl]-ethyl}-cyclohexyl)-3-hydroxy-propionamide] | 11.7 | 24.8
O=C(C[C@H]1CC[C@H](O)CC1)N[C@H]1CC[C@H](CCN2CCC(c3noc4cc(F)c(F)cc34)CC2)CC1 [Example 69, N-trans-(4-{2-[4-(5,6-Difluoro-benzo[d]isoxazol-3-yl)-piperidin-1-yl]-ethyl}-cyclohexyl)-2-(4-hydroxy-cyclohexyl)-acetamide] | 20.9 | 7.85
O=C(C[C@@H]1CC[C@@H](O)C1)N[C@H]1CC[C@H](CCN2CCC(c3noc4cc(F)c(F)cc34)CC2)CC1 [Example 70, N-trans-(4-{2-[4-(5,6-Difluoro-benzo[d]isoxazol-3-yl)-piperidin-1-yl]-ethyl}-cyclohexyl)-2-((1R,3R)-3-hydroxy-cyclopentyl)-acetamide] | 19.8 | 11.4
O=C(N[C@H]1CC[C@H](CCN2CCC(c3noc4cc(F)c(F)cc34)CC2)CC1)C1CCOCC1 [Example 71, Tetrahydro-pyran-4-carboxylic acid trans-(4-{2-[4-(5,6-difluoro-benzo[d]isoxazol-3-yl)-piperidin-1-yl]-ethyl}-cyclohexyl)-amide] | 18.2 | 7.86
O=C(CC1OCCCO1)N[C@H]1CC[C@H](CCN2CCC(c3noc4cc(F)c(F)cc34)CC2)CC1 [Example 72, N-trans-(4-{2-[4-(5,6-Difluoro-benzo[d]isoxazol-3-yl)-piperidin-1-yl]-ethyl}-cyclohexyl)-2-[1,3]dioxan-2-yl-acetamide] | 13.5 | 9.39
CC(=O)N[C@H]1CC[C@H](CCN2CCC(c3noc4cc(C)ccc34)CC2)CC1 [Example 73, N-trans-(4-{2-[4-(6-Methyl-benzo[d]isoxazol-3-yl)-piperidin-1-yl]-ethyl}-cyclohexyl)-acetamide] | 9.28 | 16.8
N-trans-(4-{2-[4-(6-Chloro-benzo[d]isoxazol-3-yl)-piperidin-1-yl]-ethyl}-cyclohexyl)-2-trans (4-methoxy-cyclohexyl)-acetamide [Example 35] | 11.6 | 9.64
